# PubChem BioAssay (NCI)
# “And” between values parts separate entries of the source, which are not always exact repeats. Equal values may be shown once.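 The compound was tested at five concentrations on cells cultured in 96-well plates, with a 48-hour exposure period. At the GI50, growth is halved. Definition used: TGI = concentration required for complete inhibition of growth.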
# Experiments:
# Experiment in all cases: inhibition of tumour cell growth, NCI panel, 48 h
# [1] = test system: HOP-92 NSCLC
# [2] = test system: OVCAR-5 ovarian
# [3] = test system: TK-10 renal
# [4] = test system: HCT-15 colon
# [5] = test system: M14 melanoma
# [6] = test system: SF-295 CNS
# [7] = test system: UACC-257 melanoma
# [8] = test system: MDA-N
# [9] = test system: MCF7 breast
# [10] = test system: MDA-MB-435
# [11] = test system: T-47D breast
SMILES,TGI [1] [µM],TGI [2] [µM],TGI [3],TGI [4],TGI [5],TGI [6],TGI [7],TGI [8] [µM],TGI [9] [µM],TGI [10],GI50 [10],GI50 [6] [µM],GI50 [11] [µM],TGI [11],GI50 [7] [µM]
CC(C)(CN1CCCCC1)C(=O)/C=C/c1ccc(Br)cc1,4.1,11.8,10.2 µM,> 24.7 µM,4.75 µM,17.4 µM,20.3 µM,–,–,–,–,–,–,–,–
Cn1c(CNc2ccc(-c3n[nH]c(=S)n3C)cc2)n[nH]c1=S,> 100,> 100,> 100 µM,> 100 µM,> 100 µM,> 100 µM,> 100 µM,> 100,> 100,> 100 µM,–,–,–,–,–
O=[N+]([O-])c1cccc2nc3ccccc3c(NCCCCCNc3c4ccccc4nc4cccc([N+](=O)[O-])c34)c12,0.0973,0.935,0.26 µM and 1.79 µM,0.0573 µM and 0.119 µM,0.198 µM and 0.024 µM,0.905 µM and 1.13 µM,0.393 µM and 1.23 µM,0.191,–,0.259 µM and 0.0288 µM,0.105 µM and 0.0111 µM,0.0226,0.121,0.837 µM and 2.24 µM,0.0619
O=C1c2ccccc2C(=O)c2[nH]cnc21,–,–,> 100 µM,> 100 µM,> 100 µM,> 100 µM,54.2 µM,–,–,–,–,–,–,–,–
CC1(C)O[C@@H]2[C@@H](COC(C)(C)O[C@H]2C2SCCCS2)O1,> 100,> 100,–,> 100 µM,> 100 µM,> 100 µM,–,> 100,> 100,> 100 µM,–,–,–,> 100 µM,–
Cc1ccc(N=N/C(=N/NC(=O)c2ccccc2)c2ccc(N(CCC#N)CCC#N)cc2C)cc1,–,> 100,> 100 µM,> 100 µM,> 100 µM,> 100 µM,> 100 µM,> 100,> 100,> 100 µM,–,–,–,> 100 µM,–
O=C(CSCC(=O)N/N=C/c1cccc(O)c1)N/N=C/c1cccc(O)c1,> 100,> 100,> 100 µM,> 100 µM,> 100 µM,> 100 µM,> 100 µM,–,> 100,> 100 µM,–,–,–,> 100 µM,–
COC(=O)c1cc2c(cc1Cl)Sc1nnc(Nc3ccccc3)n1S2(=O)=O,3.75,21.4,8.66 µM,6.05 µM,17.5 µM,12.7 µM,21.7 µM,–,8.94,22.7 µM,–,–,–,3.72 µM,–
NNc1nnc(CCCCCCCCc2nnc(NN)n2N)n1N,> 100,> 100,> 100 µM,> 100 µM,> 100 µM,> 100 µM,> 100 µM,> 100,> 100,> 100 µM,–,–,–,–,–
CC(=O)NC1C(OCC(=O)NCCNc2ccc([N+](=O)[O-])c3[nH]c4ccccc4c(=O)c23)C(O)C(CO)OC1(C)OCc1ccccc1 (stereo not given),–,> 100,> 100 µM,> 100 µM,> 100 µM,> 100 µM,> 100 µM,> 100,> 100,> 100 µM,–,–,–,> 100 µM,–
N#Cc1ccccc1OCCOc1ccccc1C#N,> 100,> 100,> 100 µM,> 100 µM,> 100 µM,> 100 µM,> 100 µM,–,> 100,> 100 µM,–,–,–,> 100 µM,–
